Measured values: the supplement of paper PMC10307832

Legend:
Test in all cases: relative viability (nuclei count vs DMSO), 5 days (fraction); higher = more cells survive
[1] = compound: CC1=CC(=NN1)NC2=CC(=NC(=N2)/C=C/C3=CC=CC=C3)N4CCN(CC4)C + Nc1ncn([C@H]2C[C@H](O)[C@@H](CO)O2)c(=O)n1 [Decitabine] (partner 2 µM)
How it was run: (§1)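 Nuclei were stained with Hoechst during a one-step fixation (final 0.05% Triton X-100, 1% formaldehyde, 1 ug/ml Hoechst) carried out 5 days after dosing, then counted on 4× images. The cells, lung cancer lines in 1536-well plates, had been dosed by pin tool the day after seeding with one drug alone or a fixed anchor-drug dose plus five library-drug doses (not always all listed) in √10 steps. Relative viability is the nuclei count in treated wells divided by that in vehicle wells, and each value is the median of duplicate plates.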

Bortezomib + Crizotinib = compound: CC(C)C[C@H](NC(=O)[C@H](Cc1ccccc1)NC(=O)c1cnccn1)B(O)O [Bortezomib] + C[C@@H](Oc1cc(-c2cnn(C3CCNCC3)c2)cnc1N)c1c(Cl)ccc(F)c1Cl [Crizotinib] (partner 1 µM)
How it was run: as §1

Obatoclax + Bortezomib = compound: COC1=CC(c2cc3ccccc3[nH]2)=N/C1=C\c1[nH]c(C)cc1C [Obatoclax] + CC(C)C[C@H](NC(=O)[C@H](Cc1ccccc1)NC(=O)c1cnccn1)B(O)O [Bortezomib] (partner 0.002 µM)
How it was run: as §1

Obatoclax + Tozasertib = compound: COC1=CC(c2cc3ccccc3[nH]2)=N/C1=C\c1[nH]c(C)cc1C [Obatoclax] + Cc1cc(Nc2cc(N3CCN(C)CC3)nc(Sc3ccc(NC(=O)C4CC4)cc3)n2)n[nH]1 [Tozasertib] (partner 0.1 µM)
How it was run: as §1

Row | Cell Line | relative viability ([1]; first compound 0.08 µM) | relative viability ([1]; first compound 0.253 µM) | relative viability ([1]; first compound 0.8 µM) | relative viability ([1]; first compound 2.53 µM) | relative viability ([1]; first compound 8 µM) | relative viability (Bortezomib + Crizotinib; first compound 0.0002 µM) | relative viability (Bortezomib + Crizotinib; first compound 0.000632 µM) | relative viability (Bortezomib + Crizotinib; first compound 0.002 µM) | relative viability (Bortezomib + Crizotinib; first compound 0.006325 µM) | relative viability (Bortezomib + Crizotinib; first compound 0.02 µM) | relative viability (Obatoclax + Bortezomib; first compound 0.01 µM) | relative viability (Obatoclax + Bortezomib; first compound 0.03162 µM) | relative viability (Obatoclax + Bortezomib; first compound 0.1 µM) | relative viability (Obatoclax + Bortezomib; first compound 0.3162 µM) | relative viability (Obatoclax + Bortezomib; first compound 1 µM) | relative viability (Obatoclax + Tozasertib; first compound 0.01 µM) | relative viability (Obatoclax + Tozasertib; first compound 0.03162 µM) | relative viability (Obatoclax + Tozasertib; first compound 0.1 µM) | relative viability (Obatoclax + Tozasertib; first compound 0.3162 µM) | relative viability (Obatoclax + Tozasertib; first compound 1 µM)
1 | NCI-H1437 | 0.523 | 0.583 | 0.555 | 0.499 | 0.255 | 0.966 | 0.894 | 0.92 | 0.0811 | 0.0914 | 0.463 | 0.421 | 0.477 | 0.438 | 0.358 | 0.414 | 0.439 | 0.437 | 0.457 | 0.521
2 | LC-2-ad | 0.821 | 0.809 | 0.744 | 0.463 | 0.187 |  | 0.476 | 0.403 | 0.291 | 0.19 | 0.979 | 0.98 | 0.98 | 0.785 | 0.339 | 0.465 | 0.422 | 0.44 | 0.387 | 0.355
3 | HARA | 0.529 | 0.641 | 0.569 | 0.192 | 0.132 | 0.961 | 0.966 | 0.789 | 0.0536 | 0.067 | 1.1 | 0.759 | 1.17 | 1.02 | 0.724 | 0.101 | 0.154 | 0.146 | 0.124 | 0.132
4 | NCI-H1975 | 0.377 | 0.406 | 0.344 | 0.314 | 0.154 | 0.944 | 0.883 | 0.192 | 0.128 | 0.127 | 0.357 | 0.456 | 0.361 | 0.49 | 0.253 | 0.706 | 0.837 |  | 0.658 | 0.131
